In ChEMBL document CHEMBL5352439, “Design, synthesis, biological evaluation and molecular docking study of novel urea-based benzamide derivatives as potent poly(ADP-ribose) polymerase-1 (PARP-1) inhibitors” (Eur J Med Chem, 2022):

Columns and labels:
[1] = system: HCT-116; assay: Inhibition of cell migration in human HCT-116 cells at 15 uM incubated for 48 hrs by wound healing assay (reference value: 42.8 %); assay type: functional
[2] = system: HCT-116; assay: Inhibition of cell migration in human HCT-116 cells at 7.5 uM incubated for 24 hrs by wound healing assay (reference value: 32.0 %); assay type: functional
[3] = system: A-375; assay: Antiproliferative activity against human A-375 cells assessed as inhibition of cell growth incubated for 48 hrs by MTT assay; assay type: functional, cell-based; settings: A-375, 48 h
[4] = system: HCT-116; assay: Induction of apoptosis in human HCT-116 cells assessed as necrotic cells at 3.75 uM incubated for 48 hrs by Annexin-V and PI staining based flow cytometry analysis (reference value: 0.06%); assay type: functional
[5] = system: HCT-116; assay: Induction of apoptosis in human HCT-116 cells assessed as necrotic cells at 7.5 uM incubated for 48 hrs by Annexin-V and PI staining based flow cytometry analysis (reference value: 0.06%); assay type: functional
[6] = system: HCT-116; assay: Inhibition of cell migration in human HCT-116 cells at 15 uM incubated for 24 hrs by wound healing assay (reference value: 32.0 %); assay type: functional
[7] = system: A-375; assay: Antiproliferative activity against human A-375 cells assessed as inhibition of cell growth at 20 uM incubated for 48 hrs by MTT assay; assay type: functional
[8] = system: HCT-116; assay: Induction of apoptosis in human HCT-116 cells assessed as necrotic cells at 15 uM incubated for 48 hrs by Annexin-V and PI staining based flow cytometry analysis (reference value: 0.06%); assay type: functional
[9] = system: HCT-116; assay: Induction of cell cycle arrest in human HCT-116 cells assessed as accumulation of cells at G2/M phase at 7.5 to 10 uM incubated for 48 hrs by propidium iodide staining based flow cytometry analysis (reference value: 27.84 %); assay type: functional; settings: dose 7.5-10 µM
[10] = system: HCT-116; assay: Induction of apoptosis in human HCT-116 cells assessed as late apoptotic cells at 15 uM incubated for 48 hrs by Annexin-V and PI staining based flow cytometry analysis (reference value: 0.06%); assay type: functional
[11] = system: HCT-116; assay: Antiproliferative activity against human HCT-116 cells assessed as inhibition of cell growth at 20 uM incubated for 48 hrs by MTT assay; assay type: functional
[12] = system: HCT-116; assay: Induction of cell cycle arrest in human HCT-116 cells assessed as decrease in cells at G0/G1 phase at 7.5 to 10 uM incubated for 48 hrs by propidium iodide staining based flow cytometry analysis (reference value: 66.42 %); assay type: functional; parameters: scale not given: the % may be the effect or the level left; settings: dose 7.5-10 µM
[13] = system: HCT-116; assay: Inhibition of cell migration in human HCT-116 cells at 7.5 uM incubated for 48 hrs by wound healing assay (reference value: 42.8 %); assay type: functional
[14] = system: MDA-MB-231; assay: Antiproliferative activity against human MDA-MB-231 cells assessed as inhibition of cell growth incubated for 48 hrs by MTT assay; assay type: functional, cell-based; settings: MDA-MB-231, 48 h
[15] = system: HCT-116; assay: Inhibition of colony formation in human HCT-116 cells at 10 uM measured every 3 days for 14 days by crystal violet staining based assay; assay type: functional; settings: HCT-116, 336 h, time 14 day
[16] = system: A549; assay: Antiproliferative activity against human A549 cells assessed as inhibition of cell growth at 20 uM incubated for 48 hrs by MTT assay; assay type: functional
[17] = system: HCT-116; assay: Inhibition of colony formation in human HCT-116 cells measured every 3 days for 14 days by crystal violet staining based assay; assay type: functional, cell-based; settings: dose 1.88-15 µM, time 14.0 day
[18] = system: HCT-116; assay: Induction of apoptosis in human HCT-116 cells assessed as late apoptotic cells at 7.5 uM incubated for 48 hrs by Annexin-V and PI staining based flow cytometry analysis (reference value: 0.06%); assay type: functional
[19] = system: HCT-116; assay: Induction of apoptosis in human HCT-116 cells assessed as early apoptotic cells at 7.5 uM incubated for 48 hrs by Annexin-V and PI staining based flow cytometry analysis (reference value: 1.26%); assay type: functional
[20] = system: HCT-116; assay: Induction of apoptosis in human HCT-116 cells assessed as viable cells at 7.5 uM incubated for 48 hrs by Annexin-V and PI staining based flow cytometry analysis (reference value: 98.60%); assay type: functional; settings: read-out: Activity
[21] = system: HeLa; assay: Antiproliferative activity against human HeLa cells assessed as inhibition of cell growth at 20 uM incubated for 48 hrs by MTT assay; assay type: functional
[22] = system: HCT-116; assay: Inhibition of colony formation in human HCT-116 cells at 7.5 uM measured every 3 days for 14 days by crystal violet staining based assay; assay type: functional; settings: HCT-116, 336 h, time 14 day
[23] = system: HCT-116; assay: Induction of apoptosis in human HCT-116 cells assessed as early apoptotic cells at 3.75 uM incubated for 48 hrs by Annexin-V and PI staining based flow cytometry analysis (reference value: 1.26%); assay type: functional
[24] = system: HCT-116; assay: Induction of apoptosis in human HCT-116 cells assessed as viable cells at 3.75 uM incubated for 48 hrs by Annexin-V and PI staining based flow cytometry analysis (reference value: 98.60%); assay type: functional; settings: read-out: Activity
[25] = system: L02; assay: Antiproliferative activity against human L02 cells assessed as inhibition of cell growth […] incubated for 48 hrs by MTT assay; assay type: functional, cell-based; settings: L02, 48 h
[26] = system: HCT-116; assay: Potency index, ratio of olaparib IC50 to test compound IC50 for antiproliferative activity against human HCT-116 cells; assay type: functional
[27] = target: Poly [ADP-ribose] polymerase 1 (Homo sapiens, UniProt P09874); assay: Inhibition of PARP1 (unknown origin) by ELISA
[28] = system: MDA-MB-231; assay: Antiproliferative activity against human MDA-MB-231 cells assessed as inhibition of cell growth at 20 uM incubated for 48 hrs by MTT assay; assay type: functional
[29] = system: HeLa; assay: Antiproliferative activity against human HeLa cells assessed as inhibition of cell growth incubated for 48 hrs by MTT assay; assay type: functional, cell-based
[30] = system: HCT-116; assay: Induction of apoptosis in human HCT-116 cells assessed as late apoptotic cells at 3.75 uM incubated for 48 hrs by Annexin-V and PI staining based flow cytometry analysis (reference value: 0.06%); assay type: functional
[31] = system: HCT-116; assay: Induction of apoptosis in human HCT-116 cells assessed as early apoptotic cells at 15 uM incubated for 48 hrs by Annexin-V and PI staining based flow cytometry analysis (reference value: 1.26%); assay type: functional
[32] = system: HCT-116; assay: Induction of apoptosis in human HCT-116 cells assessed as viable cells at 15 uM incubated for 48 hrs by Annexin-V and PI staining based flow cytometry analysis (reference value: 98.60%); assay type: functional; settings: read-out: Activity
[33] = system: A549; assay: Antiproliferative activity against human A549 cells assessed as inhibition of cell growth incubated for 48 hrs by MTT assay; assay type: functional, cell-based; settings: A549, 48 h
[34] = system: HCT-116; assay: Inhibition of cell migration in human HCT-116 cells at 10 uM incubated for 48 hrs by wound healing assay (reference value: 42.8 %); assay type: functional
[35] = system: HCT-116; assay: Induction of apoptosis in human HCT-116 cells assessed as viable cells at 10 uM incubated for 48 hrs by Annexin-V and PI staining based flow cytometry analysis (reference value: 98.50%); assay type: functional; settings: read-out: Activity
[36] = system: HCT-116; assay: Induction of apoptosis in human HCT-116 cells assessed as necrotic cells at 10 uM incubated for 48 hrs by Annexin-V and PI staining based flow cytometry analysis (reference value: 0.08%); assay type: functional
[37] = system: HCT-116; assay: Induction of apoptosis in human HCT-116 cells assessed as early apoptotic cells at 10 uM incubated for 48 hrs by Annexin-V and PI staining based flow cytometry analysis (reference value: 1.26%); assay type: functional
[38] = system: HCT-116; assay: Induction of apoptosis in human HCT-116 cells assessed as viable cells at 5 uM incubated for 48 hrs by Annexin-V and PI staining based flow cytometry analysis (reference value: 98.50%); assay type: functional; settings: read-out: Activity
[39] = system: HCT-116; assay: Induction of apoptosis in human HCT-116 cells assessed as late apoptotic cells at 20 uM incubated for 48 hrs by Annexin-V and PI staining based flow cytometry analysis (reference value: 0.06%); assay type: functional
[40] = system: HCT-116; assay: Induction of apoptosis in human HCT-116 cells assessed as late apoptotic cells at 10 uM incubated for 48 hrs by Annexin-V and PI staining based flow cytometry analysis (reference value: 0.06%); assay type: functional
[41] = system: HCT-116; assay: Inhibition of cell migration in human HCT-116 cells at 10 uM incubated for 24 hrs by wound healing assay (reference value: 32.0 %); assay type: functional
[42] = system: HCT-116; assay: Induction of apoptosis in human HCT-116 cells assessed as viable cells at 20 uM incubated for 48 hrs by Annexin-V and PI staining based flow cytometry analysis (reference value: 98.50%); assay type: functional; settings: read-out: Activity
[43] = system: HCT-116; assay: Inhibition of cell migration in human HCT-116 cells at 20 uM incubated for 48 hrs by wound healing assay (reference value: 42.8 %); assay type: functional
[44] = system: HCT-116; assay: Induction of apoptosis in human HCT-116 cells assessed as necrotic cells at 20 uM incubated for 48 hrs by Annexin-V and PI staining based flow cytometry analysis (reference value: 0.08%); assay type: functional
[45] = system: HCT-116; assay: Induction of cell cycle arrest in human HCT-116 cells assessed as decrease in cells at G0/G1 phase at 10 to 40 uM incubated for 48 hrs by propidium iodide staining based flow cytometry analysis (reference value: 63.67 %); assay type: functional; parameters: scale not given: the % may be the effect or the level left; settings: dose 10-40 µM
[46] = system: HCT-116; assay: Induction of apoptosis in human HCT-116 cells assessed as early apoptotic cells at 5 uM incubated for 48 hrs by Annexin-V and PI staining based flow cytometry analysis (reference value: 1.26%); assay type: functional
[47] = system: HCT-116; assay: Induction of cell cycle arrest in human HCT-116 cells assessed as accumulation of cells at G2/M phase at 10 to 40 uM incubated for 48 hrs by propidium iodide staining based flow cytometry analysis (reference value: 27.38 %); assay type: functional; settings: dose 10-40 µM
[48] = system: HCT-116; assay: Induction of apoptosis in human HCT-116 cells assessed as necrotic cells at 5 uM incubated for 48 hrs by Annexin-V and PI staining based flow cytometry analysis (reference value: 0.08%); assay type: functional
[49] = system: HCT-116; assay: Induction of apoptosis in human HCT-116 cells assessed as late apoptotic cells at 5 uM incubated for 48 hrs by Annexin-V and PI staining based flow cytometry analysis (reference value: 0.06%); assay type: functional
[50] = system: HCT-116; assay: Inhibition of cell migration in human HCT-116 cells at 20 uM incubated for 24 hrs by wound healing assay (reference value: 32.0 %); assay type: functional
[51] = system: HCT-116; assay: Induction of apoptosis in human HCT-116 cells assessed as early apoptotic cells at 20 uM incubated for 48 hrs by Annexin-V and PI staining based flow cytometry analysis (reference value: 1.26%); assay type: functional

Sequence of Poly [ADP-ribose] polymerase 1 (P09874 whole entry): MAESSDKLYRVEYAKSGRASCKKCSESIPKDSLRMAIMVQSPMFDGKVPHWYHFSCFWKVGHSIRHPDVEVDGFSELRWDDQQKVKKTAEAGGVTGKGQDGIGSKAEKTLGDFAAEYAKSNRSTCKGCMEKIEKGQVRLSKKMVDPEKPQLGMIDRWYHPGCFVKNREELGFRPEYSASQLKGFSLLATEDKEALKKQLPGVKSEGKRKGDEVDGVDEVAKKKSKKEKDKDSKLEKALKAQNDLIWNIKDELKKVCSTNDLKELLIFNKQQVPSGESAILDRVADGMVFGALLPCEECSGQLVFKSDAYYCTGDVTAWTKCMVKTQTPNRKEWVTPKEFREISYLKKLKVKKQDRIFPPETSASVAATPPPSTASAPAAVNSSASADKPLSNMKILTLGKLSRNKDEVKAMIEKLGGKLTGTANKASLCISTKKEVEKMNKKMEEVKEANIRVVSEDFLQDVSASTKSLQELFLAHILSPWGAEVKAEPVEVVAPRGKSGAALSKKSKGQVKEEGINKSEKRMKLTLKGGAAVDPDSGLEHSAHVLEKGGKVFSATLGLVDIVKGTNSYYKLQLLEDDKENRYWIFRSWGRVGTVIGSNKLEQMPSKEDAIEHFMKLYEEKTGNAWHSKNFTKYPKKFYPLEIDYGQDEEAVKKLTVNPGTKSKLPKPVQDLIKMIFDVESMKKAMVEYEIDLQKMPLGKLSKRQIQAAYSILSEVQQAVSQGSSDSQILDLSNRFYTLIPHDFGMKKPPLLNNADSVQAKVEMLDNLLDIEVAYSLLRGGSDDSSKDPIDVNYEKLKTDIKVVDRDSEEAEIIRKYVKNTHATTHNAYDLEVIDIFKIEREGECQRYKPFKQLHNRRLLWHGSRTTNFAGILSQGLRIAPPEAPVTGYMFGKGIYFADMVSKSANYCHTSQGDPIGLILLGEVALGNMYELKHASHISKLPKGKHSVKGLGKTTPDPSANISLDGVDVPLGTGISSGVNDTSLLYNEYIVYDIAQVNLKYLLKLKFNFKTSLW

## NC(=O)c1ccccc1NCc1cccc(NC(=O)Nc2cccc(Br)c2)c1
[1]
  inhibition at 15 µM: 24.2%
[2]
  inhibition at 7.5 µM: 21%
[3]
  IC50: 15.1 µM
[4]
  Activity: 0.1%
[5]
  Activity: 0.1%
[6]
  inhibition at 15 µM: 14.7%
[7]
  inhibition at 20 µM: 81.8%
[8]
  Activity: 0.43%
[9]
  Activity: 34.6%
[10]
  Activity: 2.2%
[11]
  inhibition at 20 µM: 91%
[12]
  Activity: 55.94%
[13]
  inhibition at 7.5 µM: 23.3%
[14]
  IC50: 13.7 µM
[15]
  inhibition at 10 µM: 100%
[16]
  inhibition at 20 µM: 78.8%
[17]
  inhibition: Dose-Dependent Effect
[18]
  Activity: 0.7%
[19]
  Activity: 12.93%
[20]
  viability at 7.5 µM: 86.3%
[21]
  inhibition at 20 µM: 72.2%
[22]
  inhibition at 7.5 µM: 100%
[23]
  Activity: 9.81%
[24]
  viability at 3.75 µM: 89.8%
[25]
  IC50: 100 µM
[26]
  Ratio IC50: 7.87
[27]
  IC50: 0.00517 µM
[28]
  inhibition at 20 µM: 86.8%
[29]
  IC50: 14.3 µM
[30]
  Activity: 0.29%
[31]
  Activity: 42.85%
[32]
  viability at 15 µM: 54.5%
[33]
  IC50: 12.4 µM

## NC(=O)c1ccccc1OCc1cccc(NC(=O)Nc2cccc(Br)c2)c1
[34]
  inhibition at 10 µM: 25.1%
[35]
  viability at 10 µM: 85%
[36]
  Activity: 0.95%
[3]
  IC50: 19.5 µM
[7]
  inhibition at 20 µM: 80.8%
[37]
  Activity: 11.56%
[38]
  viability at 5 µM: 94.6%
[11]
  inhibition at 20 µM: 90.7%
[39]
  Activity: 0.89%
[40]
  Activity: 2.44%
[41]
  inhibition at 10 µM: 23%
[14]
  IC50: 14.2 µM
[15]
  inhibition at 10 µM: 100%
[16]
  inhibition at 20 µM: 49.3%
[17]
  inhibition: Dose-Dependent Effect
[42]
  viability at 20 µM: 58.5%
[21]
  inhibition at 20 µM: 71.2%
[43]
  inhibition at 20 µM: 19.3%
[22]
  inhibition at 7.5 µM: 100%
[44]
  Activity: 0.15%
[45]
  Activity: 55.17%
[25]
  IC50: 71.1 µM
[26]
  Ratio IC50: 8.93
[46]
  Activity: 4.09%
[27]
  IC50: 0.00606 µM
[28]
  inhibition at 20 µM: 78.8%
[47]
  Activity: 34.14%
[29]
  IC50: 13.3 µM
[48]
  Activity: 0.55%
[49]
  Activity: 0.77%
[50]
  inhibition at 20 µM: 12%
[33]
  IC50: 26.4 µM
[51]
  Activity: 40.51%
